Laboratory results as given in PMC4773758, “Small Molecule Inhibited Parathyroid Hormone Mediated cAMP Response by N–Terminal Peptide Binding” (Scientific Reports, 2016).

Columns and labels:
PTH(1–84) [1] = target: T1, PTH(1–84) (Homo sapiens, UniProt P01270); experiment: Fluorescence quenching titration with PTH(1–84); type: binding
T1 construct: SUMO (N, cleaved yes); His-tag (C); made in house; host or cells: E. coli BL21 codon+
T1 sequence (P01270 32-115): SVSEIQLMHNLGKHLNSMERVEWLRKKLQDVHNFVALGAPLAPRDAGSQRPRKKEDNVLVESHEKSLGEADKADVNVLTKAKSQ
Protocol: (§1) The natural form of parathyroid hormone comprises 84 residues, however, PTH(1–34) is sufficient for receptor activation. PTH contains one tryptophan residue at position 23. Thus it can be used as a highly sensitive fluorescent probe for the analysis of ligand binding by fluorescence spectroscopy. PTH is composed of structured sections mainly from positions 1–37, whereas the C–terminal part is largely unstructured. […] In order to establish the binding a titration experiment was carried out where the PTH(1–34) concentration was kept constant and the concentration of the Zn complex was varied.
(§2) The fluorescence quenching behavior was analyzed according to the equation given in the experimental section. […] In order to evaluate the interaction at the C–terminal part of the PTH and its role in binding, full length PTH(1–84) was taken and its binding was established.
(§3) Fluorescence titrations were carried out on a JASCO FP6500. The samples were excited at 280 nm wavelength and the emission spectra were recorded in the range between 290 nm to 450 nm. Experiments were carried out in 10 mM BisTris, 300 mM Na2SO4, 0.02% NaN3, pH 7.2 using a 1 cm path length quartz cell. The concentration of PTH(1–34), PTH(1–84) and nECD-PTH1R used in the titration experiments were 7.4 μM, 8.1 μM and 5 μM, respectively. In a typical titration experiment, 4 μM of Zn complex or 9-anthracenemethanol was added and spectra were recorded after each addition. Zn complex or 9-anthracenemethanol in buffer was used as blank titration and these spectral traces were subtracted from the main titration. The Zn complex or 9-anthracenemethanol was dissolved in dimethyl sulfoxide and further diluted for experiments. The final concentration of DMSO was <1% in any experiment.
(§4) Fluorescence data were analyzed according to the following equation:
(§5) with P = (P0 / (V0 + L))V0 and L1 = (L0 / (V0 + L))L and Q – fluorescence intensity, P – protein concentration, L – ligand concentration, V – volume, n – binding sites and 0 – indicates start point.

PTH(1–84) [2] = target: T1, PTH(1–84); experiment: NMR 1H–15N HSQC titration with 15N–PTH(1–84); type: binding; settings: pH 5.3, 25 °C
Text: Preferential binding at residue-level resolution was further investigated by choosing full length ^15N PTH(1–84) to see whether or not the C–terminal region is involved in the Zn complex interaction. […] These NMR spectra indicate that the N–terminal domain of PTH (1–84) binds to the Zn complex whereas the C–terminus part remains solvent exposed and flexible enough to result in observable resonances. […] Histidine 63 is the only exception in the C–terminal part of PTH(1–84) sensing complex formation.
The spectra were recorded at the concentration of 50 μM of peptide hormones. Subsequently, titration was carried out with the addition of 0.5 μl of 10 mM Zn complex until there was no further change in NMR intensity observed. The spectrum corresponding to the 1:4 complex formations was used for the analysis. For the 9-anthracenemethanol titration experiment 20 μM of PTH was used. A titration was carried out and the 1:4 complex of PTH:9-anthracenemethanol was analyzed in detail. The spectra were corrected for the dilution factor. The previously determined NMR assignments of PTH resonances were used[24][63][64]. The spectra were recorded in the 10 mM BisTris, 300 mM Na2SO4, 0.02% NaN3, pH 5.3, with a Bruker 800 MHz Avance III spectrometer equipped with a CP–TCI cryoprobe at 25 °C. Spectra were processed using the programs NMRPipe and NMR Draw.

[3] = tested on: PTH(1–84) induced cAMP in HEK 293 cells expressing hPTH1R; experiment: cAMP accumulation assay, compound pre-incubated with PTH(1–84); type: cell-based, Human
Text: NMR spectroscopy identified that the Zn complex interacts with the N–terminal part of the peptide hormone. The binding region from residues 1–37 of PTH(84) is important for recognition, interaction with the extracellular loops and trans–membrane helices of the receptor and bringing about activation of the later. There are two principal signal transduction pathways involving the G protein–coupled receptors: the cAMP signal pathway and the phosphatidylinositol signal pathway. Parathyroid hormone is involved in the cAMP pathway for its biological regulation. Because binding of the Zn complex was at the N–terminal part of PTH, it is interesting to investigate the cAMP response towards its receptor in the presence of the Zn complex. Therefore PTH(1–34) and PTH(1–84) induced cAMP accumulation was measured in stable HEK 293 cell lines expressing recombinant PTH1R[33]. A cAMP generation assay was carried out in a Zn complex concentration dependent manner, keeping the cells and peptide hormone concentrations constant. PTH response without Zn complex was considered as 100% cAMP response. The peptide hormones were exposed to Zn complex for 15 minutes to allow for complex formation and subsequently cAMP generation was studied.
(§6) HEK 293 cells stably expressing hPTH1R were used for the cAMP accumulation assay following the previously reported procedure. The reaction was carried out at 37 °C and fluorescence measurements were taken using a VICTOR X4 2030 plate reader (PerkinElmer Life and Analytical Sciences). A fixed amount of 0.01 μM peptide hormones and 4 × 10^3 cells per well were used to monitor the cAMP response. The Zn complex or 9-anthracenemethanol was diluted form 0.1 μM to 100 μM and incubated for 15 minutes with the peptide hormone before addition of HEK 293 cells. All experiments were performed in triplicate and repeated independently three times. The maximum cAMP response were calculated as a percentage of the maximal response of PTH(1–34) or PTH(1–84). The effect of Zn complex or 9-anthracenemethanol on receptor was evaluated by incubating these with the cells for 15 minutes followed by washing with buffer. These treated cells were added to the reaction mixture containing untreated PTH(1–84) as described above.

PTH1R in HEK 293 cells = experiment: cAMP assay, compound pre-incubated with cells followed by PTH(1–84); type: cell-based, Human; settings: compound pre-incubated with the cells, then PTH(1–84)
Protocol: (§7) The cAMP generation was also analyzed to see the effect of the Zn complex on the receptor itself. Here, the Zn complex was pre-incubated with the cells followed by addition of PTH(1–84). […] In another control experiment cAMP generation was also studied by incubating the 9-anthracenemethanol with the peptide (Figure S9) or directly with the cells (grey bars in Figure S7). […] Additionally, inhibition of cAMP response or cell toxicity was also not observed up to 100 μM of Zn–perchlorate (Figure S10).
as §6, with “All experiments were performed in triplicate and repeated independently three times.” left out, “These treated cells were added to the reaction mixture containing untreated PTH(1–84) as described above.” left out

HEK 293 cells = experiment: Cell viability, MTT assay; type: cell-based, Human; settings: up to 100 μM, MTT after 3h
Protocol: as §7
Figure S10: (a) cAMP response and (b) cell viability against Zn–perchlorate. Cell viability was tested after 3h using MTT assay.

Water solubility = type: physicochemical; settings: in the absence of the metal
Text: As GPCRs are involved in many diseases, they are targets for approximately 40% of all human modern medicinal drugs. However, these drugs target only a small fraction (about 10%) of known GPCRs[37]. Within the context of receptors including GPCRs, typically available drug molecules for pharmacological applications directly target the receptors. However, literature is limited with regards to molecules which bind to the agonist to modify its receptor activating function. A potential class of molecules for this purpose could be organic/coordination/mixed–ligand complexes. In mixed–ligand complexes one metal ion can replace another metal ion bearing the original skeletal system. A metal replacement can lead to suppressed or negligible biological responses. […] In principle, Zn(II) is less toxic than Cu(II) and it is redox silent therefore, this metal was chosen in exchange of Cu(II).

cancer cells = tested on: cancer cells; design: method as in PMID 21709916; settings: broad range of cancer cells; cited from earlier work
[4] = design: method as in PMID 21709916; settings: cited from earlier work
PTH(1–34) [5] = target: T2, PTH(1–34) (Homo sapiens, UniProt P01270); experiment: ITC with PTH(1–34); type: binding; settings: 25 °C
T2 construct: Human PTH(1–34) and PTH(1–84) were purified as previously reported; SUMO (N, cleaved yes); His-tag (C); made in house; host or cells: E. coli BL21 codon+
T2 sequence (P01270 32-65 limits assumed): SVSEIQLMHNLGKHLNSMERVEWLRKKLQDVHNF
Protocol: (§8) ITC is a well suited method to evaluate protein-ligand interaction. The interaction of the Zn complex with PTH(1–34) and PTH(1–84) was evaluated by ITC at 25 °C. Zn complex binding was exothermic in nature for both the peptides (Fig. 3b and Figure S4). Data fitting gave n values of 2.28 ± 0.13 and 1.93 ± 0.04 for PTH(1–34) and PTH(1–84), respectively. […] The enthalpic gain counterbalances the unfavorable loss in entropy of the system upon complex binding.
(§9) The calorimetric titrations were performed at 25 °C with a MicroCal VPITC isothermal titration calorimeter. Small aliquots (7 μl) of the Zn complex were added to a solution of the respective peptide in the calorimeter cell. Successive additions were separated by a 300 second interval to allow the resulting peak from peptide Zn complex interaction to return to the baseline. All of the studies were carried out in 10 mM BisTris, 300 mM Na2SO4, pH 7.2.

PTH(1–84) [6] = target: T1, PTH(1–84); experiment: ITC with PTH(1–84); type: binding; settings: 25 °C
Protocol: as §8, §9

[7] = tested on: PTH(1–34) induced cAMP in HEK 293 cells expressing hPTH1R; experiment: cAMP accumulation assay, compound pre-incubated with PTH(1–34); type: cell-based, Human; settings: PTH(1–34) 0.01 μM, 15 min pre-incubation with peptide
Text: NMR spectroscopy identified that the Zn complex interacts with the N–terminal part of the peptide hormone. The binding region from residues 1–37 of PTH(84) is important for recognition, interaction with the extracellular loops and trans–membrane helices of the receptor and bringing about activation of the later. There are two principal signal transduction pathways involving the G protein–coupled receptors: the cAMP signal pathway and the phosphatidylinositol signal pathway. Parathyroid hormone is involved in the cAMP pathway for its biological regulation. […] Therefore PTH(1–34) and PTH(1–84) induced cAMP accumulation was measured in stable HEK 293 cell lines expressing recombinant PTH1R[33]. […]
HEK 293 cells stably expressing hPTH1R were used for the cAMP accumulation assay following the previously reported procedure. The reaction was carried out at 37 °C and fluorescence measurements were taken using a VICTOR X4 2030 plate reader (PerkinElmer Life and Analytical Sciences). […] The maximum cAMP response were calculated as a percentage of the maximal response of PTH(1–34) or PTH(1–84). The effect of Zn complex or 9-anthracenemethanol on receptor was evaluated by incubating these with the cells for 15 minutes followed by washing with buffer. […]

PTH(1–34) [8] = target: T2, PTH(1–34); experiment: Fluorescence quenching titration with PTH(1–34); type: binding
Protocol: as §1, §2, §3, §4, §5

OCc1c2ccccc2cc2ccccc12 [9-anthracenemethanol, reference compound]
Kd (PTH(1–84) [1]; fluorescence titration against PTH(1–84)): 3520 ± 380 µM
change in NMR cross peaks / intensity of PTH(1–84) (PTH(1–84) [2]): no residue specific NMR intensity loss
suppression of intracellular cAMP generation ([3]; compound incubated with the peptide PTH(1–84)): significant suppression of intracellular cAMP generation was not observed
suppression of cAMP generation (PTH1R in HEK 293 cells): significant suppression of intracellular cAMP generation was not observed

[O-][Cl+3]([O-])([O-])[O-].[O-][Cl+3]([O-])([O-])[O-].[Zn+2] [Zn–perchlorate, reference compound]
change in fluorescence intensity (PTH(1–84) [1]; up to 200 μM, PTH(1–84)): did not show any significant change
change in NMR cross peaks / intensity of PTH(1–84) (PTH(1–84) [2]): did not show a significant change in NMR cross peaks
inhibition of cAMP response ([3]; up to 100 μM): not observed
cell toxicity (HEK 293 cells): not observed

c1ccc(-c2cc(-c3c4ccccc4cc4ccccc34)cc(-c3ccccn3)n2)nc1 [anthracenyl terpyridine]
water solubility (Water solubility): water insoluble

Cu(II) complex of anthracenyl terpyridine [reference compound]
antiproliferative activity (cancer cells): showed nuclease and antiprolifirative activity
nuclease activity [4]: showed nuclease and antiprolifirative activity

Zn(II) complex of anthracenyl terpyridine [Zn complex]
reduced fluorescence intensity at the end of the titration (PTH(1–84) [1]; 76 μM of Zn complex, PTH(1–84)): ~ 75%
CF50 (concentration required for 50% quenching of fluorescence intensity) (PTH(1–84) [1]; PTH(1–84)): 31.8 ± 0.8 µM
stoichiometry (PTH(1–84) [1]; fluorescence quenching, PTH(1–84)): 2.0
Kd (PTH(1–84) [1]; fluorescence quenching, PTH(1–84) 8.1 μM, pH 7.2): 34 ± 1.7 µM
antiproliferative activity (cancer cells): did not show nuclease or antiprolifirative activities
nuclease activity [4]: did not show nuclease or antiprolifirative activities
Kd (PTH(1–34) [5]): 55.06 ± 0.06 µM
n (ITC) (PTH(1–34) [5]): 2.28 ± 0.13
∆H (ITC) (PTH(1–34) [5]): -5.9 ± 0.1 kcal/mol
∆S (ITC) (PTH(1–34) [5]): −5.37 cal mol^−1K^−1
change in NMR cross peaks / intensity of PTH(1–84) (PTH(1–84) [2]): binds to N–terminal residues
concentration for complete suppression of the cAMP response ([3]; PTH(1–84) 0.01 μM, 15 min pre-incubation with peptide): ~ 20 μM
IC50 ([3]; PTH(1–84) 0.01 μM, 15 min pre-incubation with peptide, read-out: concentration at which 50% reduced activity (cAMP response) was observed): 2 µM
Kd (PTH(1–84) [6]): 54.1 ± 0.08 µM
n (ITC) (PTH(1–84) [6]): 1.93 ± 0.04
∆H (ITC) (PTH(1–84) [6]): -11.25 ± 0.3 kcal/mol
∆S (ITC) (PTH(1–84) [6]): −7.15 cal mol^−1K^−1
suppression of cAMP generation (PTH1R in HEK 293 cells): did not show a significant suppression
concentration for complete suppression of the cAMP response [7]: ~ 20 μM
IC50 ([7]; read-out: concentration at which 50% reduced activity (cAMP response) was observed): 2 µM
reduced fluorescence intensity at the end of the titration (PTH(1–34) [8]; 76 μM of Zn complex, PTH(1–34)): ~ 86%
CF50 (concentration required for 50% quenching of fluorescence intensity) (PTH(1–34) [8]; PTH(1–34)): 21.46 ± 0.5 µM
stoichiometry (numbers of binding sites with equal affinities) (PTH(1–34) [8]; fluorescence quenching, PTH(1–34)): 1.9
Kd (PTH(1–34) [8]; fluorescence quenching, PTH(1–34) 7.4 μM, pH 7.2): 27 ± 1.8 µM
